Data from patent US8710104B2, “Catecholic butanes and use thereof for cancer therapy” (Triact Therapeutics, Inc., priority 2008, dated 2014).

Tests used:
H1299 NSCLC cells [1] = test: proliferation of H1299 NSCLC cells; assay type: cell-based
[2] = molecular target: T1, kinase domain of the IGF-1R (Homo sapiens, UniProt P08069); test: RTK activity ELISA, IGF-1R kinase domain; assay type: biochemical; details: ATP 10 μM, IRS-1 substrate peptide 0.2 μM, 45 minute reaction
T1 construct: recombinant proteins representing the kinase domain of the IGF-1R or EGFR (Cell Signaling Technology, Danvers, Mass.); purchased Cell Signaling Technology, Danvers, Mass
Procedure: (§1) Inhibition of lipoxygenase activity was determined by use of a lipoxygenase inhibitor screening assay kit (Cayman Chemicals, Ann Arbor, Mich.). […] LOX activity was determined by the amount of hydroperoxides produced, as quantified by colorimetric readout. Inhibition of RTK activity was determined by ELISA as follows. […] The reaction was stopped with 50 mM EDTA, and biotin-conjugated substrate was captured on a 96-well streptavidin-coated plate. Tyrosine phosphorylation of captured substrate was determined by incubation with anti-phosphotyrosine antibody conjugated to HRP (Santa Cruz Biotechnology, Santa Cruz, Calif.) and colorimetric readout on a 96 well plate reader.

[3] = molecular target: T2, kinase domain of the EGFR (Homo sapiens, UniProt P00533); test: RTK activity ELISA, EGFR kinase domain; assay type: biochemical; details: ATP 10 μM, PTP1B substrate peptide 0.2 μM, 45 minute reaction
T2 construct: recombinant proteins representing the kinase domain of the IGF-1R or EGFR (Cell Signaling Technology, Danvers, Mass.); purchased Cell Signaling Technology, Danvers, Mass
Procedure: as §1

[4] = tested on: H1975 NSCLC cells expressing EGFR T790M mutation; test: proliferation of Iressa-resistant H1975 NSCLC cells; assay type: cell-based; details: 10 μM TT-100, 3 days
H1975 NSCLC cells = test: soft agar colony formation, H1975; assay type: cell-based; details: 5 μM or 30 μM TT-100, 8 days; reduced more at higher dose
Procedure: (§2) Colony formation was assessed and compared with the control cells grown in the absence of TT-100.

H1299 NSCLC cells [5] = test: soft agar colony formation, H1299; assay type: cell-based; details: 5 μM or 30 μM TT-100, 8 days; reduced more at higher dose
Procedure: as §2

[6] = tested on: subcutaneous HER2 breast tumors (MCNeuA cells); test: MCNeuA syngeneic breast cancer model, tumor growth; assay type: in vivo, MMTVneu transgenic mice; details: thrice weekly
Procedure: (§3) MCNeuA cells were implanted in MMTVneu transgenic mice to induce tumor growth. […] Tumor growth was monitored and tumor size was measured at various time points. […] IGF-1R and HER2 phosphorylation were measured by ELISA.

IGF-1R = molecular target: T3, IGF-1R (Mus musculus, UniProt Q60751); test: IGF-1R phosphorylation in excised breast tumors by ELISA; assay type: in vivo, MMTVneu transgenic mice; details: tumor excised on day 28, 24 hrs after the final treatment
T3 construct: from tissue; host or cells: excised subcutaneous MCNeuA breast tumours from MMTVneu transgenic mice
Procedure: as §3

HER2 = HER2 phosphorylation in excised breast tumors by ELISA; assay type: in vivo, MMTVneu transgenic mice; details: tumor excised on day 28, 24 hrs after the final treatment
Procedure: as §3

ovarian cancer = ovarian cancer patients; topotecan about 1.5 mg/m^2 i.v. days 1-5 of a 21-day course
Text: This example describes a randomized, blinded, placebo-controlled, multicenter, Phase II study designed to provide a preliminary assessment of the safety and efficacy of combining NDGA with topotecan in patients with ovarian cancer. Approximately about 100—about 800 patients are enrolled, with about 50—about 400 patients being assigned to a treatment group and about 50—about 400 patients assigned to a placebo group. The trial will consist of the administration of intravenous repeating doses of NDGA as described above in Example 11 combined with topotecan at about 1.5 mg/m^2 by intravenous infusion on days 1-5 of a 21-day course, with courses repeating throughout the study. Control patients are administered topotecan with placebo. […] Additional outcome measures are as follows:
Primary outcome measure: progression-free survival.

T2 sequence (P00533 712-979 limits assumed): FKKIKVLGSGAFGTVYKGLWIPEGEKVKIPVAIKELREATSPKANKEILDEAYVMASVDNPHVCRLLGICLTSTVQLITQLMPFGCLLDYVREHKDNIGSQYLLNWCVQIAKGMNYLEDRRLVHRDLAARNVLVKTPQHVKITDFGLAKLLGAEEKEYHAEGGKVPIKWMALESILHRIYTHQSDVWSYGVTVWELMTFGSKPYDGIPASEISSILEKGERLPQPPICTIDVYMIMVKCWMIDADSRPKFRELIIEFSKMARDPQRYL
T3 sequence (Q60751 31-1373): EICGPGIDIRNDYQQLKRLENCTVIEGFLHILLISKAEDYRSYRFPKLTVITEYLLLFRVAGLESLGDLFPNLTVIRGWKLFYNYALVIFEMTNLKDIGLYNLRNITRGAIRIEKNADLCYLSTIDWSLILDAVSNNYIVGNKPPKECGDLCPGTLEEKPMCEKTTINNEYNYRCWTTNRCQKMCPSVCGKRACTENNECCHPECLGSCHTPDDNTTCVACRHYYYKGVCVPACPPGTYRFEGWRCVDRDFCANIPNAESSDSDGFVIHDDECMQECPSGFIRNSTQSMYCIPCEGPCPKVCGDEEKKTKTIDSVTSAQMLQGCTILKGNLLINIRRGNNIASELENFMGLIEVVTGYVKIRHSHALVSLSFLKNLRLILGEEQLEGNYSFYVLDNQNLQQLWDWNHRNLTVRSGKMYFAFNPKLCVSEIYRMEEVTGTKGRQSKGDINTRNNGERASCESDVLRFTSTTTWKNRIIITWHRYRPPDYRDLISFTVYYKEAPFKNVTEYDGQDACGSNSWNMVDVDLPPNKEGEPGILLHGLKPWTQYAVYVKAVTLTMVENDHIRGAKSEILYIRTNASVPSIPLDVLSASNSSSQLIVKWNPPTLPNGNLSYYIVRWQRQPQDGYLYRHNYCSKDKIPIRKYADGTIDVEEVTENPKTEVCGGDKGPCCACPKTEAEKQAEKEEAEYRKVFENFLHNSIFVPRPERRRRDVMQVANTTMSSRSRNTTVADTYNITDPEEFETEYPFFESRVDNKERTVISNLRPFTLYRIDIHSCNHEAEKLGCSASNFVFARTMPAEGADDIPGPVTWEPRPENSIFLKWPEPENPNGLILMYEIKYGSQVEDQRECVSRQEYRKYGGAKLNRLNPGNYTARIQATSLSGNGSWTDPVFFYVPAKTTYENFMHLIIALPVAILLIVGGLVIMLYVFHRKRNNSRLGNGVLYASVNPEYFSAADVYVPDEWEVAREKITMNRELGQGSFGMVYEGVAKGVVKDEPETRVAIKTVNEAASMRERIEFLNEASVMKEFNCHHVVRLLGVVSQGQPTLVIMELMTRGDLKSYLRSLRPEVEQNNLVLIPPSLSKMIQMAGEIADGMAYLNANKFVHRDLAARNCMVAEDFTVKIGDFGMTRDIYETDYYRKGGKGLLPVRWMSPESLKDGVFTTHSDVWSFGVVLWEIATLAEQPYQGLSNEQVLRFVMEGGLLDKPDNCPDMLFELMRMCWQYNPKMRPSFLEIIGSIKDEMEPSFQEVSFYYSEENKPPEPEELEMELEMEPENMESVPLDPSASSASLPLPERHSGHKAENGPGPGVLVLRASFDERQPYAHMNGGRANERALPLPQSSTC
T1 sequence (P08069 999-1274 limits assumed): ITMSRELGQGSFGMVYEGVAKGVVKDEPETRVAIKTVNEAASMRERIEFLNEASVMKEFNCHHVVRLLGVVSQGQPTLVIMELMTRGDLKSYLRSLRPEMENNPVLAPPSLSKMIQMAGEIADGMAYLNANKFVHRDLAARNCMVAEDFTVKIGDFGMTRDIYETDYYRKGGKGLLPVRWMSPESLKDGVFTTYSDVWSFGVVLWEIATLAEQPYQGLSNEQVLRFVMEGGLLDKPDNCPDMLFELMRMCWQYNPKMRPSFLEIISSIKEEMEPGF

COc1cc2ncnc(Nc3ccc(F)c(Cl)c3)c2cc1OCCCN1CCOCC1 [Iressa, Gefitinib, reference compound]
proliferation (percent growth of the control cells), Iressa alone (H1299 NSCLC cells [1]; 1 μM Iressa, 3 days): resistant

CC(Cc1ccc(O)c(O)c1)C(C)Cc1ccc(O)c(O)c1 (stereo not drawn) [TT-100, nordihydroguaiaretic acid]
inhibition of tyrosine kinase activity of purified IGF-1R [2]: directly inhibits
inhibition of tyrosine kinase activity of purified EGFR [3]: directly inhibits
reduction of proliferation (percent growth of the control cells) [4]: approximately 50%
proliferation (percent growth of the control cells), TT-100 alone (H1299 NSCLC cells [1]; 10 μM or 20 μM TT-100, 3 days, especially at 20 μM): inhibited the proliferation
colony formation in soft agar (H1975 NSCLC cells): inhibited colony formation
colony formation in soft agar (H1299 NSCLC cells [5]): inhibited colony formation
tumor growth (tumor size) ([6]; 37.5 mg/kg i.p.): inhibited the growth
tumor growth (tumor size) ([6]; 100 mg/kg by gavage (oral)): inhibited the growth
IGF-1R receptor phosphorylation compared to vehicle-treated control (IGF-1R): significantly inhibited
HER2 receptor phosphorylation compared to vehicle-treated control (HER2): significantly inhibited

CC[C@@]1(O)C(=O)OCc2c1cc1n(c2=O)Cc2cc3c(CN(C)C)c(O)ccc3nc2-1 [topotecan]
progression free survival (goal of the study) (ovarian cancer): 3-6 months
